Reference: patent publication US11639343B2, “Compounds targeting and degrading BCR-ABL protein and its antitumor application” (ShanghaiTech University, priority 2019, dated 2023)
Like-named read-outs stand apart in the source and are kept apart here.

What was measured:
HEK293 (BCR-ABL-) cells = test: CCK-8 proliferation inhibition, HEK293 cells; details: read-out: Proliferative inhibitory activity (IC50, nM) HEK293 (BCR-ABL-);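 note: Ten-point threefold dilution series starting at 10 µM, CCK-8 absorbance at 450 nm read after 2 h reagent incubation, DMSO-treated cells as negative control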
K562 (BCR-ABL+) cells = test: CCK-8 proliferation inhibition, K562 cells; format: cell-based, human; details: read-out: Proliferative inhibitory activity (IC50, nM) K562 (BCR-ABL+);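 note: Ten-point threefold dilution series starting at 10 µM, absorbance at 450 nm after 2 h with CCK-8, DMSO as negative control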
U937 (BCR-ABL-) cells = test: CCK-8 proliferation inhibition, U937 cells; format: cell-based, human; details: read-out: Proliferative inhibitory activity (IC50, nM) U937 (BCR-ABL-);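 note: Ten-point threefold dilution series, absorbance at 450 nm after 2 h with CCK-8 reagent, DMSO as negative control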
[1] = CCK-8, 48 hours of drug treatment, highest concentration 10 μM
[2] = CCK-8, 48 hours of drug treatment
[3] = Homo sapiens, U-937, CCK-8, 48 hours of drug treatment, highest concentration 10 μM
[4] = Homo sapiens, K562, 48 h, CCK-8, 48 hours of drug treatment

Row | IC50 (K562 (BCR-ABL+) cells; [2]) | IC50 (U937 (BCR-ABL-) cells; [1]) | IC50 (K562 (BCR-ABL+) cells; Homo sapiens, K562, 48 h) | IC50 (U937 (BCR-ABL-) cells; Homo sapiens, U-937, 48 h) | IC50 (U937 (BCR-ABL-) cells; [3]) | IC50 (K562 (BCR-ABL+) cells; [4]) | Compound | IC50 (HEK293 (BCR-ABL-) cells; [1]) | IC50 (HEK293 (BCR-ABL-) cells; Homo sapiens, HEK293, 48 h)
1 | 670 nM | > 10000 nM | – | – | – | – | Cc1nc(Nc2ncc(C(=O)Nc3c(C)cccc3Cl)s2)cc(N2CCN(C(=O)COCCOCC(=O)N[C@H](C(=O)N3C[C@H](O)C[C@H]3C(=O)NCc3ccc(-c4scnc4C)cc3)C(C)(C)C)CC2)n1 [SIAIS151076, N-(2-chloro-6-methylphenyl)-2-((6-(4-(2-(2-(2-(((S)-1-((2S,4R)-4-hydroxy-2-((4-(4-methylthiazol-5-yl)benzyl)carbamoyl)pyrrolidin-1-yl)-3,3-dimethyl-1-oxobutan-2-yl)amino)-2-oxoethoxy)ethoxy)acetyl)piperazin-1-yl)-2-methylpyrimidin-4-yl)amino)thiazole-5-carboxamide] | > 10000 nM | –
2 | – | – | 29.6 nM | > 10000 nM | – | – | COc1cc(Nc2c(C#N)cnc3cc(OCCCN4CCN(C)CC4)c(OC)cc23)c(Cl)cc1Cl [Bosutinib, reference compound] | – | –
3 | 2240 nM | – | – | – | > 10000 nM | – | Cc1nc(Nc2ncc(C(=O)Nc3c(C)cccc3Cl)s2)cc(N2CCN(C(=O)COCCOCC(=O)N[C@H](C(=O)N3C[C@H](O)C[C@H]3C(=O)NCc3ccc(-c4scnc4C)cc3)C(C)(C)C)CC2)n1 [SIAIS151080, N-(2-chloro-6-methylphenyl)-2-((6-(4-(2-(2-(2-(((S)-1-((2S,4R)-4-hydroxy-2-((4-(4-methylthiazol-5-yl)benzyl)carbamoyl)pyrrolidin-1-yl)-3,3-dimethyl-1-oxobutan-2-yl)amino)-2-oxoethoxy)ethoxy)acetyl)piperazin-1-yl)-2-methylpyrimidin-4-yl)amino)thiazole-5-carboxamide] | – | > 10000 nM
4 | – | – | – | – | > 10000 nM | 811 nM | COc1cc(Nc2c(C#N)cnc3cc(OCCCN4CCN(C(=O)CC(=O)Nc5cccc6c5CN(C5CCC(=O)NC5=O)C6=O)CC4)c(OC)cc23)c(Cl)cc1Cl (centres unmarked) [SIAIS164104, 3-(4-(3-((3-cyano-4-((2,4-dichloro-5-methoxyphenyl)amino)-6-methoxyquinolin-7-yl)oxy)propyl)piperazin-1-yl)-N-(2-(2,6-dioxopiperidin-3-yl)-1-oxoisoindolin-4-yl)-3-oxopropanamide] | – | > 10000 nM
5 | – | – | – | – | > 10000 nM | 12 nM | Cc1nc(Nc2ncc(C(=O)Nc3c(C)cccc3Cl)s2)cc(N2CCN(C(=O)CCCc3cn(CCCC(=O)N[C@H](C(=O)N4C[C@H](O)C[C@H]4C(=O)NCc4ccc(-c5scnc5C)cc4)C(C)(C)C)nn3)CC2)n1 [SIAIS164134, N-(2-chloro-6-methylphenyl)-2-((6-(4-(4-(1-(4-(((S)-1-((2S,4R)-4-hydroxy-2-((4-(4-methylthiazol-5-yl)benzyl)carbamoyl)pyrrolidin-1-yl)-3,3-dimethyl-1-oxobutan-2-yl)amino)-4-oxobutyl)-1H-1,2,3-triazol-4-yl)butanoyl)piperazin-1-yl)-2-methylpyrimidin-4-yl)amino)thiazole-5-carboxamide] | – | > 10000 nM
6 | – | – | – | – | > 10000 nM | 32.3 nM | Cc1nc(Nc2ncc(C(=O)Nc3c(C)cccc3Cl)s2)cc(N2CCN(C(=O)CCCCCCCCCCCCCCC(=O)N[C@H](C(=O)N3C[C@H](O)C[C@H]3C(=O)NCc3ccc(-c4scnc4C)cc3)C(C)(C)C)CC2)n1 [SIAIS164194, N-(2-chloro-6-methylphenyl)-2-((6-(4-(16-(((S)-1-((2S,4R)-4-hydroxy-2-((4-(4-methylthiazol-5-yl)benzyl)carbamoyl)pyrrolidin-1-yl)-3,3-dimethyl-1-oxobutan-2-yl)amino)-16-oxohexadecanoyl)piperazin-1-yl)-2-methylpyrimidin-4-yl)amino)thiazole-5-carboxamide] | – | > 10000 nM
7 | – | – | – | – | > 10000 nM | 14.9 nM | Cc1nc(Nc2ncc(C(=O)Nc3c(C)cccc3Cl)s2)cc(N2CCN(C(=O)CCCCCOCCOCCOCCCCCC(=O)N[C@H](C(=O)N3C[C@H](O)C[C@H]3C(=O)NCc3ccc(-c4scnc4C)cc3)C(C)(C)C)CC2)n1 [SIAIS180147, N-(2-chloro-6-methylphenyl)-2-((6-(4-((S)-3-((2S,4R)-4-hydroxy-2-((4-(4-methylthiazol-5-yl)benzyl)carbamoyl)pyrrolidine-1-carbonyl)-2,2-dimethyl-5-oxo-11,14,17-trioxa-4-azatricosan-23-oyl)piperazin-1-yl)-2-methylpyrimidin-4-yl)amino)thiazole-5-carboxamide] | – | > 10000 nM
8 | – | – | – | – | > 10000 nM | 1610 nM | Cc1nc(Nc2ncc(C(=O)Nc3c(C)cccc3Cl)s2)cc(N2CCN(C(=O)CCOCCOCCOCCOCCOCCC(=O)N[C@H](C(=O)N3C[C@H](O)C[C@H]3C(=O)NCc3ccc(-c4scnc4C)cc3)C(C)(C)C)CC2)n1 [SIAIS151079, N-(2-chloro-6-methylphenyl)-2-((6-(4-((S)-21-((2S,4R)-4-hydroxy-2-((4-(4-methylthiazol-5-yl)benzyl)carbamoyl)pyrrolidine-1-carbonyl)-22,22-dimethyl-19-oxo-4,7,10,13,16-pentaoxa-20-azatricosanoyl)piperazin-1-yl)-2-methylpyrimidin-4-yl)amino)thiazole-5-carboxamide] | – | > 10000 nM
9 | – | – | – | – | > 10000 nM | 6.8 nM | Cc1nc(Nc2ncc(C(=O)Nc3c(C)cccc3Cl)s2)cc(N2CCN(C(=O)CCNc3cccc4c3C(=O)N(C3CCC(=O)NC3=O)C4=O)CC2)n1 (centres unmarked) [SIAIS151074, N-(2-chloro-6-methylphenyl)-2-((6-(4-(3-((2-(2,6-dioxopiperidin-3-yl)-1,3-dioxoisoindolin-4-yl)amino)propanoyl)piperazin-1-yl)-2-methylpyrimidin-4-yl)amino)thiazole-5-carboxamide] | – | > 10000 nM
10 | – | – | – | – | > 10000 nM | 72 nM | Cc1nc(Nc2ncc(C(=O)Nc3c(C)cccc3Cl)s2)cc(N2CCN(C(=O)CCCCNC(=O)CCCCCCCCC(=O)N[C@H](C(=O)N3C[C@H](O)C[C@H]3C(=O)NCc3ccc(-c4scnc4C)cc3)C(C)(C)C)CC2)n1 [SIAIS184032, N1-(5-(4-(6-((5-((2-chloro-6-methylphenyl)carbamoyl)thiazol-2-yl)amino)-2-methylpyrimidin-4-yl)piperazin-1-yl)-5-oxopentyl)-N10-((S)-1-((2S,4R)-4-hydroxy-2-((4-(4-methylthiazol-5-yl)benzyl)carbamoyl)pyrrolidin-1-yl)-3,3-dimethyl-1-oxobutan-2-yl)decanediamide] | – | > 10000 nM
11 | – | – | – | – | > 10000 nM | 14.4 nM | Cc1nc(Nc2ncc(C(=O)Nc3c(C)cccc3Cl)s2)cc(N2CCN(C(=O)CCCCCCCCCCCCC(=O)N[C@H](C(=O)N3C[C@H](O)C[C@H]3C(=O)NCc3ccc(-c4scnc4C)cc3)C(C)(C)C)CC2)n1 [SIAIS164193, N-(2-chloro-6-methylphenyl)-2-((6-(4-(14-(((S)-1-((2S,4R)-4-hydroxy-2-((4-(4-methylthiazol-5-yl)benzyl)carbamoyl)pyrrolidin-1-yl)-3,3-dimethyl-1-oxobutan-2-yl)amino)-14-oxotetradecanoyl)piperazin-1-yl)-2-methylpyrimidin-4-yl)amino)thiazole-5-carboxamide] | – | > 10000 nM
12 | – | – | – | – | > 10000 nM | 438 nM | COc1cc(Nc2c(C#N)cnc3cc(OCCCN4CCN(C(=O)CCCC(=O)Nc5cccc6c5CN(C5CCC(=O)NC5=O)C6=O)CC4)c(OC)cc23)c(Cl)cc1Cl (centres unmarked) [SIAIS164106, 5-(4-(3-((3-cyano-4-((2,4-dichloro-5-methoxyphenyl)amino)-6-methoxyquinolin-7-yl)oxy)propyl)piperazin-1-yl)-N-(2-(2,6-dioxopiperidin-3-yl)-1-oxoisoindolin-4-yl)-5-oxopentanamide] | – | > 10000 nM
13 | – | – | – | – | > 10000 nM | 3430 nM | Cc1nc(Nc2ncc(C(=O)Nc3c(C)cccc3Cl)s2)cc(N2CCN(C(=O)CCOCCOCCOCCC(=O)N[C@H](C(=O)N3C[C@H](O)C[C@H]3C(=O)NCc3ccc(-c4scnc4C)cc3)C(C)(C)C)CC2)n1 [SIAIS151077, N-(2-chloro-6-methylphenyl)-2-((6-(4-((S)-15-((2S,4R)-4-hydroxy-2-((4-(4-methylthiazol-5-yl)benzyl)carbamoyl)pyrrolidine-1-carbonyl)-16,16-dimethyl-13-oxo-4,7,10-trioxa-14-azaheptadecanoyl)piperazin-1-yl)-2-methylpyrimidin-4-yl)amino)thiazole-5-carboxamide] | – | > 10000 nM
